Laboratory results as given in patent publication US20090178149A1, “Polyamine Sensors and Methods of Using the Same” (priority 2005, published 2009).

Target: FLIP-AF1 biosensor (AF1 protein fused to CFP and YFP Venus) (Agrobacterium fabrum, UniProt A9CK51)
Conditions: excitation 433 nm, emission 485/528 nm; 20 mM sodium phosphate buffer, pH 7.0
Method: A DNA fragment encoding the mature AF1 protein was fused to CFP and the YFP Venus sequence at the N- and C-termini, respectively. Emission spectra and substrate titration curves were obtained by using monochromator microplate reader Safire (Tecan, Austria). Excitation filter was 433/−12 nm, emission filters for CFP and YFP emission were 485/−12, 528 nm/12 nm, respectively. All analyses were done in 20 mM sodium phosphate buffer, pH 7.0.
The FLIP-AF1 biosensor (see SEQ ID Nos. 3 and 4) was titrated against various putrescine concentrations.

Sequence of FLIP-AF1 biosensor (AF1 protein fused to CFP and YFP Venus) (A9CK51 27-365): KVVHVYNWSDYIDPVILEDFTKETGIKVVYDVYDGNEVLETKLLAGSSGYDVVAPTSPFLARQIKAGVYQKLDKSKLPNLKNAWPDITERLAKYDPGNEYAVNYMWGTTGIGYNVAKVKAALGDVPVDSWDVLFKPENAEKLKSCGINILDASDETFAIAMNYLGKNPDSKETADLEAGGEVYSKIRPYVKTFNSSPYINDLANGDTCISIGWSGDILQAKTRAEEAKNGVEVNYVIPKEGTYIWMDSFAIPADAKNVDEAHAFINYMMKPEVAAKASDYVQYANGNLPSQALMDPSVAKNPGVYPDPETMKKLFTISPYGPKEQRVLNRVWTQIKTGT

- change in CFP/YFP emission (YFP/CFP ratio) on addition of putrescine: decrease in the YFP/CFP ratio
SMILES: NCCCCN [putrescine, 1,4-diaminobutane]
